BindingDB's records for doi:10.1016/j.bmcl.2003.09.074 (Eli Lilly, 2003)
*1 amine or outer side, *2 acyl side, *3 side chain or, on linkers, in order; H or OH if unused. Where a SMILES comes first, the peptide text is derived from it. [ ]: non-standard residue; d: D form. The star is where a group is joined. Pro(3S,4R-(CH2)3) = O=C(O)[C@H]1NC[C@@H]2CCC[C@@H]21; Pyrazinecarbonyl = O=C(c1cnccn1)*; X1 = CCCC(N[*:1])C(=O)C(=O)[*:2]

Legend:
[1] = Cytotoxic activity against Protease in […] Huh-7 cells
[2] = Binding affinity towards Protease using PNA assay in rats
[3] = Cytotoxic activity against Protease in […] Huh-7 cells at 100 uM concentration
[4] = Cytotoxic activity against Protease in […] Huh-7 cells; remark: listed apart in the source

Compound	Ki [2] [nM]	IC50 [1] [µM]	IC50 [3] [µM]	IC50 [4] [µM]
CCCC(NC(=O)[C@@H]1[C@H]2CCC[C@H]2CN1C(=O)[C@@H](NC(=O)[C@@H](NC(=O)c1cnccn1)C(C)C)C(C)C)C(=O)C(=O)N[C@@H](Cc1ccccc1)C(=O)O (stereo partly drawn) [2-(3-{[(1S,5S,6R)-2-((S)-3-Methyl-2-{(S)-3-methyl-2-[(pyrazine-2-carbonyl)-amino]-butyrylamino}-butyryl)-octahydro-cyclopenta[c]pyrrole-1-carbonyl]-amino}-2-oxo-hexanoylamino)-3-phenyl-propionic acid] (Pyrazinecarbonyl-VV[Pro(3S,4R-(CH2)3)][X1]F-OH)	68	> 100	–	–
CCCC(NC(=O)[C@@H]1[C@H]2CC[C@@H](OCOC)C2CN1C(=O)[C@@H](NC(=O)[C@@H](NC(=O)c1cnccn1)C(C)C)C(C)C)C(=O)C(=O)NC1CC1 (stereo partly drawn) [(1S,5S)-4-Methoxymethoxy-2-((S)-3-methyl-2-{(S)-3-methyl-2-[(pyrazine-2-carbonyl)-amino]-butyrylamino}-butyryl)-octahydro-cyclopenta[c]pyrrole-1-carboxylic acid ((R)-1-cyclopropylaminooxalyl-butyl)-amide]	415	> 100	–	–
CCCC(NC(=O)[C@@H]1[C@H]2CC[C@@H](OCOC)C2CN1C(=O)[C@@H](NC(=O)[C@@H](NC(=O)c1cnccn1)C(C)C)C(C)C)C(=O)C(=O)N[C@@H](C)c1ccccc1 (stereo partly drawn) [(1S,5S)-4-Methoxymethoxy-2-((S)-3-methyl-2-{(S)-3-methyl-2-[(pyrazine-2-carbonyl)-amino]-butyrylamino}-butyryl)-octahydro-cyclopenta[c]pyrrole-1-carboxylic acid [(R)-1-((S)-1-phenyl-ethylaminooxalyl)-butyl]-amide]	332	–	33	–
CCCC(NC(=O)[C@@H]1[C@H]2CC=C[C@H]2CN1C(=O)[C@@H](NC(=O)[C@@H](NC(=O)c1cnccn1)C(C)C)C(C)C)C(=O)C(=O)NC1CC1 (stereo partly drawn) [(1S,5S,6R)-2-((S)-3-Methyl-2-{(S)-3-methyl-2-[(pyrazine-2-carbonyl)-amino]-butyrylamino}-butyryl)-1,2,3,3a,6,6a-hexahydro-cyclopenta[c]pyrrole-1-carboxylic acid (1-cyclopropylaminooxalyl-butyl)-amide]	90	> 100	–	–
CCCC(NC(=O)[C@@H]1[C@H]2CC=C[C@H]2CN1C(=O)[C@@H](NC(=O)[C@@H](NC(=O)c1cnccn1)C(C)C)C(C)C)C(=O)C(=O)N[C@@H](C)c1ccccc1 (stereo partly drawn) [(1S,5S,6R)-2-((S)-3-Methyl-2-{(S)-3-methyl-2-[(pyrazine-2-carbonyl)-amino]-butyrylamino}-butyryl)-1,2,3,3a,6,6a-hexahydro-cyclopenta[c]pyrrole-1-carboxylic acid [1-((S)-1-phenyl-ethylaminooxalyl)-butyl]-amide]	880	–	–	–
CCCC(NC(=O)[C@@H]1[C@H]2CC=C[C@H]2CN1C(=O)[C@@H](NC(=O)[C@@H](NC(=O)c1cnccn1)C(C)C)C(C)C)C(=O)C(=O)N[C@@H](C)CC (stereo partly drawn) [(1S,5S,6R)-2-((S)-3-Methyl-2-{(S)-3-methyl-2-[(pyrazine-2-carbonyl)-amino]-butyrylamino}-butyryl)-1,2,3,3a,6,6a-hexahydro-cyclopenta[c]pyrrole-1-carboxylic acid [1-((S)-sec-butylaminooxalyl)-butyl]-amide]	625	–	–	–

Continued, in another order:

Ki [2] [nM]	Compound	IC50 [1] [µM]	IC50 [3] [µM]	IC50 [4] [µM]
370	CCCC(NC(=O)[C@@H]1[C@H]2CCC(F)(F)[C@H]2CN1C(=O)[C@@H](NC(=O)[C@@H](NC(=O)c1cnccn1)C(C)C)C(C)C)C(=O)C(=O)NC1CC1 (stereo partly drawn) [(1S,5S,6R)-4,4-Difluoro-2-((S)-3-methyl-2-{(S)-3-methyl-2-[(pyrazine-2-carbonyl)-amino]-butyrylamino}-butyryl)-octahydro-cyclopenta[c]pyrrole-1-carboxylic acid (1-cyclopropylaminooxalyl-butyl)-amide]	> 100	–	–
300	CCCC(NC(=O)[C@@H]1[C@H]2CC[C@H](F)[C@H]2CN1C(=O)[C@@H](NC(=O)[C@@H](NC(=O)c1cnccn1)C(C)C)C(C)C)C(=O)C(=O)NC1CC1 (stereo partly drawn) [(1S,5S,6R)-4-Fluoro-2-((S)-3-methyl-2-{(S)-3-methyl-2-[(pyrazine-2-carbonyl)-amino]-butyrylamino}-butyryl)-octahydro-cyclopenta[c]pyrrole-1-carboxylic acid ((S)-1-cyclopropylaminooxalyl-butyl)-amide]	> 100	–	–
315	CCCC(NC(=O)[C@@H]1[C@H]2CC[C@H](F)[C@H]2CN1C(=O)[C@@H](NC(=O)[C@@H](NC(=O)c1cnccn1)C(C)C)C(C)C)C(=O)C(=O)N[C@@H](C)c1ccccc1 (stereo partly drawn) [(1S,5S,6R)-4-Fluoro-2-((S)-3-methyl-2-{(S)-3-methyl-2-[(pyrazine-2-carbonyl)-amino]-butyrylamino}-butyryl)-octahydro-cyclopenta[c]pyrrole-1-carboxylic acid [(S)-1-((S)-1-phenyl-ethylaminooxalyl)-butyl]-amide]	–	–	–
17	CCCC(NC(=O)C1[C@H]2CCC(=O)[C@H]2CN1C(=O)[C@@H](NC(=O)[C@@H](NC(=O)c1cnccn1)C(C)C)C(C)C)C(=O)C(=O)Nc1ccccc1 (stereo partly drawn) [(3aR,5S)-2-((S)-3-Methyl-2-{(S)-3-methyl-2-[(pyrazine-2-carbonyl)-amino]-butyrylamino}-butyryl)-4-oxo-octahydro-cyclopenta[c]pyrrole-1-carboxylic acid (1-phenylaminooxalyl-butyl)-amide]	> 100	–	–
510	CCCC(NC(=O)C1[C@H]2CCC(=O)[C@H]2CN1C(=O)[C@@H](NC(=O)[C@@H](NC(=O)c1cnccn1)C(C)C)C(C)C)C(=O)C(=O)NC1CC1 (stereo partly drawn) [(5S,6R)-2-((S)-3-Methyl-2-{(S)-3-methyl-2-[(pyrazine-2-carbonyl)-amino]-butyrylamino}-butyryl)-4-oxo-octahydro-cyclopenta[c]pyrrole-1-carboxylic acid (1-cyclopropylaminooxalyl-butyl)-amide]	> 100	–	–
176	CCCC(NC(=O)[C@@H]1[C@H]2CCC(F)(F)[C@H]2CN1C(=O)[C@@H](NC(=O)[C@@H](NC(=O)c1cnccn1)C(C)C)C(C)C)C(=O)C(=O)N[C@@H](Cc1ccccc1)C(=O)O (stereo partly drawn) [(S)-2-(3-{[(1S,5S,6R)-4,4-Difluoro-2-((S)-3-methyl-2-{(S)-3-methyl-2-[(pyrazine-2-carbonyl)-amino]-butyrylamino}-butyryl)-octahydro-cyclopenta[c]pyrrole-1-carbonyl]-amino}-2-oxo-hexanoylamino)-3-phenyl-propionic acid]	–	–	> 100
82	CCCC(NC(=O)[C@@H]1[C@H]2CC[C@H](F)[C@H]2CN1C(=O)[C@@H](NC(=O)[C@@H](NC(=O)c1cnccn1)C(C)C)C(C)C)C(=O)C(=O)N[C@@H](Cc1ccccc1)C(=O)O (stereo partly drawn) [(S)-2-((S)-3-{[(1S,5S,6R)-4-Fluoro-2-((S)-3-methyl-2-{(S)-3-methyl-2-[(pyrazine-2-carbonyl)-amino]-butyrylamino}-butyryl)-octahydro-cyclopenta[c]pyrrole-1-carbonyl]-amino}-2-oxo-hexanoylamino)-3-phenyl-propionic acid]	–	–	> 100
